Data from patent US9051325B2, “Bicyclic [5,6] imidazo pyrimodone compounds for use in the treatment of diseases or conditions mediated by Lp-PLA2” (GlaxoSmithKline Intellectual Property Development Limited, priority 2013, dated 2015).
Like-named read-outs stand apart in the source and are kept apart here.

Key:
Lp-PLA2 in human plasma = target: T1, Lp-PLA2 in human plasma (Homo sapiens, UniProt Q13093); assay: Lp-PLA2 human plasma assay (Thio-PAF assay); type: biochemical; conditions: pooled human plasma; lower bounds; read-out: pIC50 values in the thio-PAF assay (converted)
T1 construct: from tissue; host or cells: pooled human plasma
T1 sequence (Q13093 22-441): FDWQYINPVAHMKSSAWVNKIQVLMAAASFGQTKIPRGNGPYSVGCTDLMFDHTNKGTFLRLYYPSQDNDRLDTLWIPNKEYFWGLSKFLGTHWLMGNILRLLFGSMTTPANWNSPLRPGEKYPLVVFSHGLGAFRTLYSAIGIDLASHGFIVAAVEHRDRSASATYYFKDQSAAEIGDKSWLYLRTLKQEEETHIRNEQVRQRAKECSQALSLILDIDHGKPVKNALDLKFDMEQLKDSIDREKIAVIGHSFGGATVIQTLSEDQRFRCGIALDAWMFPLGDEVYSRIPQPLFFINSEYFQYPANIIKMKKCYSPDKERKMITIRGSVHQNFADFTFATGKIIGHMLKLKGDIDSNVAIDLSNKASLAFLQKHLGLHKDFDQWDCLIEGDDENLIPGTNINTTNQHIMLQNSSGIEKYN
From the text: (3) Lipoprotein-Associated Phospholipase A2 (Lp-PLA2) Human Plasma Assay (Also Referred to as “Thio-PAF assay”)
The human plasma assay utilizes a thioester analog of PAF (phosphatidylcholine), where hydrolysis yields to the formation of a phospholipid containing a free thiol group. The amount of thiol is quantitated continuously by reacting with CPM (7-diethylamino-3-(4′-maleimidylphenyl)-4-methylcoumarin), a maleimide which increases in fluoresence after Michael addition of thiols. This assay may detect the activity of Lp-PLA2 in human plasma, as determined by specific inhibition by Lp-PLA2 inhibitors.
The thio-PAF assay was run as a quenched 15 μL assay. Compounds source plate was prepared by making 1:3 (by volume) serial dilution of the compounds into pure DMSO on 384-well microplate. 0.01 μL of compounds on compound source plate were transferred to 384 well Greiner 784076 (black) low-volume plates by ECHO liquid dispenser. 8 μL pooled human plasma, which was previously aliquoted and frozen, was added. Plates were centrifuged for 10 sec at 500 rpm. After 30 minutes preincubation, 2 μL of substrate solution comprising 2.5 mM 2-thio-PAF [from ethanol stock], 32 μM CPM [from a DMSO stock] and 3.2 mM NEM (N-ethylmaleimide) [made fresh daily in DMSO] in assay buffer of 50 mM HEPES, pH 7.4, 150 mM NaCl, 1 mM CHAPS was added to 384 well Greiner 784076 (black) low-volume plates by BRAVO liquid handling station. After 2 mins, reaction was quenched with 5 μL of 5% aqueous trifluoroacetic acid (TFA). Plates were covered to protect from light and incubated for 40 min at room temperature. Plates were read at ex: 380/em: 485 using-Envision microplate reader. PIC50 data, curve and QC analysis were conducted by using XLFit module in Excel.

[1] = target: T2, recombinant human Lp-PLA2 (Homo sapiens, UniProt Q13093); assay: Recombinant human Lp-PLA2 assay (rhLp-PLA2, PED6 assay); type: biochemical
T2 sequence (Q13093 22-441): T1 sequence (Q13093 22-441)
From the text: (1) Recombinant Human Lp-PLA2 Assay (rhLp-PLA2) (Also Referred to as “PED6” Assay)
N-((6-(2,4-dinitrophenyl)amino)-hexanoyl)-2-(4,4-difluoro-5,7-dimethyl-4-bora-3a,4a-diaza-s-indacene-3-pentanoyl)-1-hexadecanoyl-sn-glycero-3-phosphoethanolamine, triethylammonium salt (PED6) is a commercially available fluorescently-labeled phospholipid, which is commercially available from Invitrogene and Molecular Probes. There is a quenching […] and a Bodipy fluorescein (FL) group in the sn2 position. Upon cleavage with Lp-PLA2, the Bodipy FL group is liberated and then may result in an increase in fluorescence. Inhibitors of Lp-PLA2 therefore prevent this cleavage and no fluorescent increase is observed.
The PED6 assay was run as an unquenched 10 μL assay. The source plate containing the compounds to be tested was prepared by making 1:3 (by volume) serial dilution of the compounds within DMSO on 384-well microplate. Then, 0.01 μL of the compounds on compound source plate were transferred into 384 well Greiner 784076 (black) plates using ECHO liquid dispenser. 5 μL of recombinant human Lp-PLA2 enzyme (4 nM (or […]) rhLp-PLA2 in assay buffer of 50 mM HEPES, pH 7.4, 150 mM NaCl, 1 mM CHAPS) was added to each well of the plate. Plates were centrifuged for 10 sec at 500 rpm. After 30 minutes preincubation, 5 μL of substrate ([…] PED6 [from 5 mM DMSO stock] in assay buffer of 50 mM HEPES, pH 7.4, 150 mM NaCl, 1 mM CHAPS) was added to 384 well Greiner 784076 (black) plates. Plates were centrifuged for 10 sec at 500 rpm. The plate was covered to protect it from light and incubated for 20 min at room temperature. The plates were read for fluorescence intensity at ex: 480/em: 540 using ViewLux microplate imager for Envision spectrofluoroimeters pIC50 data, curve and QC analysis was conducted by using XL fit module in Excel.

[2] = lower bounds, read-out: pIC50 values in the PED6 assay (converted)
[3] = read-out: rhLp-PLA2 (PED6 assay) (pIC50) (converted)

IC50 (Lp-PLA2 in human plasma) | IC50 [1, 2] | IC50 [1, 3] | Structure (SMILES)
≤ 100 nM | ≤ 1 nM | – | CC1Cn2c(cc(OCc3ccc(Oc4ccnc(C(F)(F)F)c4)c(F)c3)nc2=O)N1C (stereo not shown) [Example E31, 7-((3-fluoro-4-((2-(trifluoromethyl)pyridin-4-yl)oxy)benzyl)oxy)-1,2-dimethyl-2,3-dihydroimidazo[1,2-c]pyrimidin-5(1H)-one]
≤ 100 nM | ≤ 1 nM | – | CC1(C)Cn2c(cc(OCc3ccc(Oc4ccc(C(F)(F)F)nc4)c(F)c3)nc2=O)N1 [Example E37, 7-((3-fluoro-4-((6-(trifluoromethyl)pyridin-3-yl)oxy)benzyl)oxy)-2,2-dimethyl-2,3-dihydroimidazo[1,2-c]pyrimidin-5(1H)-one]
≤ 100 nM | ≤ 1 nM | – | CC1(C)Cn2c(cc(OCc3ccc(Oc4ccnc(C(F)(F)F)c4)c(F)c3)nc2=O)N1 [Example E38, 7-((3-fluoro-4-((2-(trifluoromethyl)pyridin-4-yl)oxy)benzyl)oxy)-2,2-dimethyl-2,3-dihydroimidazo[1,2-c]pyrimidin-5(1H)-one]
≤ 100 nM | ≤ 1 nM | – | CC1(C)Cn2c(cc(OCc3cc(F)c(Oc4ccc(C(F)(F)F)nc4)c(F)c3)nc2=O)N1 [Example E39, 7-((3,5-difluoro-4-((6-(trifluoromethyl)pyridin-3-yl)oxy)benzyl)oxy)-2,2-dimethyl-2,3-dihydroimidazo[1,2-c]pyrimidin-5(1H)-one]
≤ 100 nM | ≤ 10 nM | – | C[C@H]1Cn2c(cc(OCc3ccc(Oc4cnc(C(F)(F)F)nc4)c(F)c3)nc2=O)N1C [Example E40, (S)-7-((3-fluoro-4-((2-(trifluoromethyl)pyrimidin-5-yl)oxy)benzyl)oxy)-1,2-dimethyl 2,3-dihydroimidazo[1,2-c]pyrimidin-5(1H)-one]
≤ 100 nM | ≤ 1 nM | – | CC1(C)Cn2c(cc(OCc3ccc(Oc4cncc(C(F)(F)F)c4)c(F)c3)nc2=O)N1 [Example E41, 7-((3-fluoro-4-((5-(trifluoromethyl)pyridin-3-yl)oxy)benzyl)oxy)-2,2-dimethyl-2,3-dihydroimidazo[1,2-c]pyrimidin-5(1H)-one]
≤ 100 nM | ≤ 1 nM | 0.316 nM | CN1c2cc(OCc3ccc(F)c(C#N)c3)nc(=O)n2CC1(C)C [Example E42, 2-fluoro-5-(((1,2,2-trimethyl-5-oxo-1,2,3,5-tetrahydroimidazo[1,2-c]pyrimidin-7-yl)oxy)methyl)benzonitrile]
≤ 100 nM | ≤ 1 nM | 0.0501 nM | CN1c2cc(OCc3ccc(Oc4cnc(C(F)(F)F)nc4)c(F)c3)nc(=O)n2CC1(C)C [Example E43, 7-((3-fluoro-4-((2-(trifluoromethyl)pyrimidin-5-yl)oxy)benzyl)oxy)-1,2,2-trimethyl-2,3-dihydroimidazo[1,2-c]pyrimidin-5(1H)-one]
≤ 100 nM | ≤ 1 nM | – | CC1(C)Cn2c(cc(OCc3ccc(Oc4ccc(Cl)nc4)c(F)c3)nc2=O)N1 [Example E44, 7-((4-((6-chloropyridin-3-yl)oxy)-3-fluorobenzyl)oxy)-2,2-dimethyl-2,3-dihydroimidazo[1,2-c]pyrimidin-5(1H)-one]
≤ 100 nM | ≤ 1 nM | – | CC1(C)Cn2c(cc(OCc3cc(F)c(Oc4ccnc(Cl)c4)c(F)c3)nc2=O)N1 [Example E45, 7-((4-((2-chloropyridin-4-yl)oxy)-3,5-difluorobenzyl)oxy)-2,2-dimethyl-2,3-dihydroimidazo[1,2-c]pyrimidin-5(1H)-one]
≤ 100 nM | ≤ 10 nM | 3.98 nM | CC(C)N1c2cc(OCc3cccc(F)c3F)nc(=O)n2CC1(C)C [Example E46, 7-((2,3-difluorobenzyl)oxy)-1-isopropyl-2,2-dimethyl-2,3-dihydroimidazo[1,2-c]pyrimidin5(1H)-one]
≤ 100 nM | ≤ 10 nM | – | C[C@@H]1Cn2c(cc(OCc3cc(F)c(F)c(F)c3)nc2=O)N1C [Example E48, (R)-1,2-dimethyl-7-((3,4,5-trifluorobenzyl)oxy)-2,3-dihydroimidazo[1,2-c]pyrimidin-5(1H)-one]
≤ 100 nM | ≤ 10 nM | – | C[C@H]1Cn2c(cc(OCc3cc(F)c(F)c(F)c3)nc2=O)N1 [Example E49, (S)-2-methyl-7-((3,4,5-trifluorobenzyl)oxy)-2,3-dihydroimidazo[1,2-c]pyrimidin-5(1H)-one]
≤ 100 nM | ≤ 1 nM | – | CC1(C)Cn2c(cc(OCc3cc(F)c(F)c(F)c3)nc2=O)N1 [Example E50, 2,2-dimethyl-7-((3,4,5-trifluorobenzyl)oxy)-2,3-dihydroimidazo[1,2-c]pyrimidin-5(1H)-one]
≤ 100 nM | ≤ 1 nM | – | C[C@@H]1Cn2c(cc(OCc3ccc(Oc4ccnc(C(F)(F)F)c4)c(F)c3)nc2=O)N1C [Example E51, (R)-7-((3-fluoro-4-((2-(trifluoromethyl)pyridin-4-yl)oxy)benzyl)oxy)-1,2-dimethyl-2,3-dihydroimidazo[1,2-c]pyrimidin-5(1H)-one]
≤ 100 nM | ≤ 10 nM | – | C[C@@H]1Cn2c(cc(OCc3ccc(F)c(C#N)c3)nc2=O)N1C [Example E53, (R)-5-(((1,2-dimethyl-5-oxo-1,2,3,5-tetrahydroimidazo[1,2-c]pyrimidin-7-yl)oxy)methyl)-2-fluorobenzonitrile]
≤ 100 nM | ≤ 1 nM | 0.126 nM | C[C@H]1Cn2c(cc(OCc3ccc(Oc4cncc(C(F)(F)F)c4)c(F)c3)nc2=O)N1C [Example E54, (S)-7-((3-fluoro-4-((5-(trifluoromethyl)pyridin-3-yl)oxy)benzyl)oxy)-1,2-dimethyl-2,3-dihydroimidazo[1,2-c]pyrimidin-5(1H)-one]
≤ 100 nM | ≤ 1 nM | – | C[C@H]1Cn2c(cc(OCc3ccc(Oc4cncc(C(F)(F)F)c4)c(C#N)c3)nc2=O)N1C [Example E55, (S)-5-(((1,2-dimethyl-5-oxo-1,2,3,5-tetrahydroimidazo[1,2-c]pyrimidin-7-yl)oxy)methyl)-2-((5-(trifluoromethyl)pyridin-3-yl)oxy)benzonitrile]
≤ 100 nM | ≤ 1 nM | 0.1 nM | C[C@H]1Cn2c(cc(OCc3cc(F)c(Oc4cncc(C(F)(F)F)c4)c(F)c3)nc2=O)N1C [Example E56, (S)-7-((3,5-difluoro-4-((5-(trifluoromethyl)pyridin-3-yl)oxy)benzyl)oxy)-1,2-dimethyl-2,3-dihydroimidazo[1,2-c]pyrimidin-5(1H)-one]
≤ 100 nM | ≤ 1 nM | 0.0631 nM | C[C@H]1Cn2c(cc(OCc3cc(F)c(Oc4ccnc(C(F)(F)F)c4)c(F)c3)nc2=O)N1C [Example E58, (S)-7-((3,5-difluoro-4-((2-(trifluoromethyl)pyridin-4-yl)oxy)benzyl)oxy)-1,2-dimethyl-2,3-dihydroimidazo[1,2-c]pyrimidin-5(1H)-one]
